This assay has as its system human tumor xenografts. The assay can be described thus: Growth of human tumor xenografts under OSI-930 (growth curves of xenograft tumor mass). Type of assay: in vivo, mice. In general terms: Xenograft models place foreign cells or tissue in a host animal.

Turning to `O=C(Nc1ccc(OC(F)(F)F)cc1)c1sccc1NCc1ccnc2ccccc12` [OSI-930], the “response of xenograft tumor growth to the drug (growth curves of tumor mass)” value was “resistant” (five of the cell line xenograft models, data not shown) and “significant inhibition of tumor growth” (the other seven cell line xenograft models).

Values taken from patent US7833736B2, “Protein markers of responsiveness to type III receptor tyrosine kinase inhibitors” (Cell Signaling Technology, Inc., priority 2006, dated 2010).
